Assay results: ChEMBL document CHEMBL3992490, “Synthesis, spectroscopic properties and photodynamic activity of two cationic BODIPY derivatives with application in the photoinactivation of microorganisms” (Eur J Med Chem, 2017)
The source made the active and inactive calls. The calls are words filed in the database; no cut-off is given here.

Key:
[1] = In vitro photodynamic activity in n-heptane/0.1 M AOT/water micelles assessed as singlet oxygen production by measuring photodegradation rate of DPBF after irradiation by absorption spectra analysis
[2] = In vitro photodynamic activity in DMF assessed as singlet oxygen production by measuring photodegradation rate of DPBF after irradiation by absorption spectra analysis
[3] = In vitro photodynamic activity in DMF assessed as reactive oxygen species production by measuring photo-oxidation rate of L-tryptophan after irradiation by absorption spectra analysis
[4] = In vitro photodynamic activity in DMF assessed as singlet oxygen production by measuring decrease in DPBF level after irradiation by absorption spectra analysis; settings: TDE = time-dependent effect
[5] = In vitro photodynamic activity in DMF/5% water assessed as reactive oxygen species production by measuring photo-oxidation rate of L-tryptophan after irradiation by absorption spectra analysis
[6] = In vitro photodynamic activity in DMF/5% water assessed as reactive oxygen species production by measuring photo-oxidation rate of L-tryptophan after irradiation in presence of DABCO by absorption spectra analysis
[7] = In vitro photodynamic activity in DMF/5% water assessed as reactive oxygen species production by measuring photo-oxidation rate of L-tryptophan after irradiation in presence of D-mannitol by absorption spectra analysis
[8] = In vitro photodynamic activity in DMF/5% water assessed as singlet oxygen production by measuring photo-oxidation rate of DPBF after irradiation by absorption spectra analysis
[9] = In vitro photodynamic activity in DMF/5% water assessed as singlet oxygen production by measuring photo-oxidation rate of DPBF after irradiation in presence of 10 mM potassium iodide by absorption spectra analysis
[10] = In vitro photodynamic activity in DMF/5% water assessed as singlet oxygen production by measuring photo-oxidation rate of DPBF after irradiation in presence of 50 mM potassium iodide by absorption spectra analysis
[11] = In vitro photodynamic activity in DMF/10% water assessed as reactive oxygen species production by measuring photo-oxidation rate of L-tryptophan after irradiation by absorption spectra analysis
[12] = In vitro photodynamic activity in DMF/10% water assessed as reactive oxygen species production by measuring photo-oxidation rate of L-tryptophan after irradiation in presence of 50 mM potassium iodide by absorption spectra analysis
[13] = In vitro photodynamic activity in DMF/5% water assessed as iodine production at 1 uM irradiated with visible light for 5 to 30 mins under aerobic condition in presence of 10 mM potassium iodide by UV-visible spectra analysis
[14] = In vitro photodynamic activity in DMF/5% water assessed as iodine production at 1 uM irradiated with visible light for 5 to 30 mins under argon condition in presence of 10 mM potassium iodide by UV-visible spectra analysis
[15] = test system: Staphylococcus aureus; experiment: Dark toxicity against Staphylococcus aureus ATCC 25923 assessed as cell viability at 1 uM measured after 30 mins by UV-visible spectroscopic method; settings: 0.5 h
[16] = test system: Staphylococcus aureus; experiment: Dark toxicity against Staphylococcus aureus ATCC 25923 assessed as cell viability at 1 uM in presence of 10 mM potassium iodide measured after 30 mins by UV-visible spectroscopic method; settings: 0.5 h
[17] = test system: Escherichia coli; experiment: Dark toxicity against Escherichia coli EC7 assessed as cell viability at 5 uM measured after 30 mins by UV-visible spectroscopic method; settings: 0.5 h
[18] = test system: Candida albicans; experiment: Dark toxicity against Candida albicans PC31 assessed as cell viability at 5 uM measured after 30 mins by UV-visible spectroscopic method; settings: 0.5 h
[19] = test system: Escherichia coli; experiment: Dark toxicity against Escherichia coli EC7 assessed as cell viability at 5 uM in presence of 10 mM potassium iodide measured after 30 mins by UV-visible spectroscopic method; settings: 0.5 h
[20] = test system: Candida albicans; experiment: Dark toxicity against Candida albicans PC31 assessed as cell viability at 5 uM in presence of 10 mM potassium iodide measured after 30 mins by UV-visible spectroscopic method; settings: 0.5 h
[21] = test system: Staphylococcus aureus; experiment: Antibacterial activity against Staphylococcus aureus ATCC 25923 assessed as reduction in cell survival at 1 uM irradiated with visible light for 5 mins by UV-visible spectroscopic method; assay type: functional
[22] = test system: Staphylococcus aureus; experiment: Antibacterial activity against Staphylococcus aureus ATCC 25923 assessed as reduction in cell survival at 1 uM irradiated with visible light for 5 mins in presence of 10 mM potassium iodide by UV-visible spectroscopic method; assay type: functional
[23] = test system: Escherichia coli; experiment: Antibacterial activity against Escherichia coli EC7 assessed as reduction in cell survival at 5 uM irradiated with visible light for 15 mins by UV-visible spectroscopic method; assay type: functional
[24] = test system: Escherichia coli; experiment: Antibacterial activity against Escherichia coli EC7 assessed as reduction in cell survival at 5 uM irradiated with visible light for 15 mins in presence of 10 mM potassium iodide by UV-visible spectroscopic method; assay type: functional
[25] = test system: Candida albicans; experiment: Anti-fungal activity against Candida albicans PC31 assessed as reduction in cell survival at 5 uM irradiated with visible light for 30 mins by UV-visible spectroscopic method; assay type: functional
[26] = test system: Candida albicans; experiment: Anti-fungal activity against Candida albicans PC31 assessed as reduction in cell survival at 5 uM irradiated with visible light for 30 mins in presence of 10 mM potassium iodide by UV-visible spectroscopic method; assay type: functional
[27] = Ratio of rate constant for induction of singlet oxygen production in DMF assessed as photodegradation rate of DPBF to rate constant for induction of reactive oxygen species production in DMF assessed as photodegradation rate of L-tryptophan
[28] = In vitro photodynamic activity in DMF/5% water assessed as iodine production at 1 uM under dark condition in presence of 10 mM potassium iodide by UV-visible spectra analysis

SMILES: CC1=CC(C)=[N+]2C1=C(c1ccc([N+](C)(C)C)cc1)c1c(C)cc(C)n1[B-]2(F)F
- K [1]: 1.95 ×10⁻⁴ /s
- K [2]: 9.51 ×10⁻⁵ /s
- K [3]: 3.06 ×10⁻⁴ /s
- Activity [4]: Tde
- K [5]: 4.75 ×10⁻⁵ /s
- K [6]: 2.98 ×10⁻⁵ /s
- K [7]: 1.41 ×10⁻⁵ /s
- K [8]: 1.8 ×10⁻⁴ /s
- K [9]: 1.58 ×10⁻⁴ /s
- K [10]: 1.02 ×10⁻⁴ /s
- K [11]: 2.13 ×10⁻⁵ /s
- K [12]: 4.42 ×10⁻⁵ /s
- Activity [13]: Active
- Activity [14]: inactive
- Activity [15]: Non-Toxic
- Activity [16]: Non-Toxic
- Activity [17]: Non-Toxic
- Activity [18]: Non-Toxic
- Activity [19]: Non-Toxic
- Activity [20]: Non-Toxic
- Activity [21]: >5 deltalog10CFU/ml
- Activity [22]: Active
- Activity [23]: 2.5 deltalog10CFU/ml
- Activity [24]: Active
- Activity [25]: 3.7 deltalog10CFU/ml
- Activity [26]: Active
- Ratio [27]: 3.2
- Activity [28]: inactive

SMILES: C[N+](C)(C)CCCOc1ccc(C2=C3C=CC=[N+]3[B-](F)(F)n3cccc32)cc1
- K [1]: 1.25 ×10⁻⁴ /s
- K [2]: 4.15 ×10⁻⁵ /s
- K [3]: 3.44 ×10⁻⁴ /s
- Activity [4]: Tde
- K [5]: 7.86 ×10⁻⁵ /s
- K [6]: 3 ×10⁻⁵ /s
- K [7]: 1.56 ×10⁻⁵ /s
- K [8]: 5.81 ×10⁻⁵ /s
- K [9]: 2.79 ×10⁻⁵ /s
- K [10]: 0.64 ×10⁻⁵ /s
- K [11]: 2.79 ×10⁻⁵ /s
- K [12]: 9.55 ×10⁻⁵ /s
- Activity [13]: Active
- Activity [14]: inactive
- Activity [15]: Non-Toxic
- Activity [16]: Non-Toxic
- Activity [17]: Non-Toxic
- Activity [18]: Non-Toxic
- Activity [19]: Non-Toxic
- Activity [20]: Non-Toxic
- Activity [21]: >5 deltalog10CFU/ml
- Activity [22]: Active
- Activity [23]: 2.5 deltalog10CFU/ml
- Activity [24]: Active
- Activity [25]: 0.9 deltalog10CFU/ml
- Activity [26]: Active
- Ratio [27]: 8.3
- Activity [28]: inactive
